Laboratory results: patent publication US9157069B2, “Method of producing pancreatic hormone-producing cells” (Takeda Pharmaceutical Company Limited, priority 2010, dated 2015)
“Also recorded” adds a separate entry of the source.

Key:
human iPS cells [1] = test: Endoderm induction of human iPS cells, SOX17 gene expression by quantitative RT-PCR; assay type: cell-based; details: GSK3 inhibitor (CHIR99021 3 μM or BIO 0.5 μM) with activin A 100 ng/ml, after 2 days in CHIR99021 3 μM; from day 4 of culture
Experimental: To the human iPS cells sedimented in the centrifuge tube, 0.25% trypsin-1 mM EDTA solution (GIBCO) was added, and allowed to dissociate until they form singulated cells. Then, human iPS cells dispersed in a medium were seeded at a density of 15×10^4 cells per one 100 mm dish coated with BD Matrigel (Nippon Becton Dickinson Company, Ltd.), and cultured at 37° C., 5% CO2 for 1 day. The 100 mm dish used was one coated with BD Matrigel diluted 40-fold with serum-free DMEM/F12 medium (Invitrogen), at room temperature for 3 hr or longer. As a medium for dispersion and seeding was a medium for primate ES cell (ReproCELL Inc.) added with 10 μM Y-27632 (Wako Pure Chemical Industries, Ltd.). […]
To examine variation in the expression of endoderm differentiation markers when human iPS cells were cultured, the cells after differentiation induction were recovered over time, and total RNA fraction was purified using RNeasy96 (Qiagen). cDNA was synthesized using PrimeScriptRT reagent kit (Takara Bio Inc.), quantitative RT-PCR was performed, and the gene expression level of a primitive streak marker Brachyury, and an endoderm marker SOX17 was measured. […]
The level of the gene expression of SOX17 when human iPS cells were cultured was measured over time. […]

human iPS cells [2] = test: Differentiation of human iPS cells into pancreatic hormone-producing cells on BD Matrigel or fibronectin substrate, time-course expression of differentiation markers; assay type: cell-based; details: substrate for endoderm induction, 100 mm dish coating diluted 40-fold
Experimental: First, human iPS cells maintained in the state of a cell mass were dissociated until they formed singulated cells in the same manner as in Example 1. Then, human iPS cells dispersed in a medium were seeded at a density of 60×10^4 cells per one 100 mm dish coated with fibronectin (Invitrogen), and cultured at 37° C., 5% CO2 for 1 day. The 100 mm dish used was one coated with fibronectin diluted 40-fold with serum-free DMEM/F12 medium (Invitrogen), at room temperature for 3 hr or longer. (indicated as “fibronectin” in FIG. 7) Human iPS cells dispersed in a medium were seeded at a density of 15×10^4 cells per one 100 mm dish coated with BD Matrigel (Nippon Becton Dickinson Company, Ltd.), and cultured at 37° C., 5% CO2 for 1 day. The 100 mm dish used was one coated with BD Matrigel diluted 40-fold with serum-free DMEM/F12 medium (Invitrogen), at room temperature for 3 hr or longer. (indicated as “Matrigel” in FIG. 7) As a medium for dispersion and seeding was a medium for primate ES cell (ReproCELL Inc.) added with 10 μM Y-27632 (Wako Pure Chemical Industries, Ltd.). One day after seeding, the medium was exchanged with DMEM/F12 medium containing a GSK3β inhibitor CHIR99021 (3 μM) and 2% B-27 supplement (GIBCO) and cultured for 2 days. Then the medium was exchanged with DMEM/F12 medium containing activin A (50 ng/ml) and CHIR99021 (1 μM) and cultured for 2 days.

Row | Compound | expression level of SOX17 (relative to GAPDH) (human iPS cells [1]) | time-course variation in the expression of differentiation markers (SOX17, PDX1, NGN3, insulin), compared between substrates (human iPS cells [2])
1 | Cc1c[nH]c(-c2cnc(NCCNc3ccc(C#N)cn3)nc2-c2ccc(Cl)cc2Cl)n1 [CHIR99021, 6-[[2-[[4-(2,4-dichlorophenyl)-5-(4-methyl-1H-imidazol-2-yl)-2-pyrimidinyl]amino]ethyl]amino]nicotinonitrile] | remarkably increased; also recorded: increased over time | –
2 | fibronectin | – | almost the same
3 | O=C1Nc2cc(Br)ccc2/C1=C1/Nc2ccccc2/C1=N\O [BIO, (2′Z,3′E)-6-bromoindirubin-3′-oxime] | remarkably increased; also recorded: increased over time | –
